What was measured:
crabgrass = assay: Postemergent control of plant species; type: in vivo, Digitaria spp.; conditions: Digitaria sanguinalis, post-emergence, 336 h, read-out: percent postemergent control
How it was run: (§1)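 Growth reduction versus untreated plants of each species, scored about two weeks after spraying, defines control here. Test emulsions contained compound in acetone diluted 1:1 into water bearing 0.1% surfactant; plants were treated at the 2-4 leaf stage in the greenhouse.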

jimsonweed [1] = assay: Preemergent control of plant species; type: in vivo, Datura stramonium; conditions: Datura stramonium, pre-emergence, 336 h; 0.25 lb/acre; read-out: percent preemergent control
How it was run: (§2)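 Seeds planted in good agricultural soil beds; active ingredients then applied to the bed surface as aqueous emulsion at listed rates. Beds kept two weeks in greenhouse with watering. Control scored against water-treated beds.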

corn [2] = assay: Preemergent control of plant species; type: in vivo, Zea mays; conditions: Zea mays, pre-emergence, 336 h; 0.25 lb/acre; read-out: percent preemergent control
How it was run: as §2

cotton [3] = assay: Preemergent control of plant species; type: in vivo, Gossypium spp.; conditions: Gossypium hirsutum, pre-emergence, 336 h; 0.25 lb/acre; read-out: percent preemergent control
How it was run: as §2

soybean [4] = assay: Preemergent control of plant species; type: in vivo, Glycine max.; conditions: Glycine max, pre-emergence, 336 h; 0.25 lb/acre; read-out: percent preemergent control
How it was run: as §2

wheat [5] = assay: Postemergent control of plant species; type: in vivo, Triticum aestivum; conditions: Triticum aestivum, post-emergence, 336 h, read-out: percent postemergent control
How it was run: as §1

barnyardgrass [6] = assay: Preemergent control of plant species; type: in vivo, Echinochloa crusgalli; conditions: Echinochloa crus-galli, pre-emergence, 336 h; 0.25 lb/acre; read-out: percent preemergent control
How it was run: as §2

rape [7] = assay: Preemergent control of plant species; type: in vivo, Brassica napus; conditions: Brassica napus, pre-emergence, 336 h; 0.25 lb/acre; read-out: percent preemergent control
How it was run: as §2

annual morning glory [8] = assay: Postemergent control of plant species; type: in vivo, Ipomoea spp.; conditions: Ipomoea, post-emergence, 336 h, read-out: percent postemergent control
How it was run: as §1

soybean [9] = assay: Postemergent control of plant species; type: in vivo, Glycine max.; conditions: Glycine max, post-emergence, 336 h, read-out: percent postemergent control
How it was run: as §1

pigweed = assay: Postemergent control of plant species; type: in vivo, Amaranthus spp.; conditions: Amaranthus retroflexus, post-emergence, 336 h, read-out: percent postemergent control
How it was run: as §1

annual morning glory [10] = assay: Preemergent control of plant species; type: in vivo, Ipomoea spp.; conditions: Ipomoea, pre-emergence, 336 h; 0.25 lb/acre; read-out: percent preemergent control
How it was run: as §2

sugar beet [11] = assay: Preemergent control of plant species; type: in vivo, Beta saccharifera; conditions: Beta vulgaris, pre-emergence, 336 h; 0.25 lb/acre; read-out: percent preemergent control
How it was run: as §2

velvetleaf [12] = assay: Preemergent control of plant species; type: in vivo, Abutilon theophrasti; conditions: Abutilon theophrasti, pre-emergence, 336 h; 0.25 lb/acre; read-out: percent preemergent control
How it was run: as §2

jimsonweed [13] = assay: Postemergent control of plant species; type: in vivo, Datura stramonium; conditions: Datura stramonium, post-emergence, 336 h, read-out: percent postemergent control
How it was run: as §1

corn [14] = assay: Postemergent control of plant species; type: in vivo, Zea mays; conditions: Zea mays, post-emergence, 336 h, read-out: percent postemergent control
How it was run: as §1

yellow nutsedge [15] = assay: Preemergent control of plant species; type: in vivo, Cyperus esculentus; conditions: Cyperus, pre-emergence, 336 h; 0.25 lb/acre; read-out: percent preemergent control
How it was run: as §2

johnson grass [16] = assay: Postemergent control of plant species; type: in vivo, Sorghum halepense; conditions: Sorghum halepense, post-emergence, 336 h, read-out: percent postemergent control
How it was run: as §1

rice [17] = assay: Postemergent control of plant species; type: in vivo, Oryza sativa; conditions: Oryza sativa, post-emergence, 336 h, read-out: percent postemergent control
How it was run: as §1

velvetleaf [18] = assay: Postemergent control of plant species; type: in vivo, Abutilon theophrasti; conditions: Abutilon theophrasti, post-emergence, 336 h, read-out: percent postemergent control
How it was run: as §1

cotton [19] = assay: Postemergent control of plant species; type: in vivo, Gossypium spp.; conditions: Gossypium hirsutum, post-emergence, 336 h, read-out: percent postemergent control
How it was run: as §1

johnson grass [20] = assay: Preemergent control of plant species; type: in vivo, Sorghum halepense; conditions: Sorghum halepense, pre-emergence, 336 h; 0.25 lb/acre; read-out: percent preemergent control
How it was run: as §2

barnyardgrass [21] = assay: Postemergent control of plant species; type: in vivo, Echinochloa crusgalli; conditions: Echinochloa crus-galli, post-emergence, 336 h, read-out: percent postemergent control
How it was run: as §1

cocklebur = assay: Postemergent control of plant species; type: in vivo, Xanthium spp.; conditions: Xanthium strumarium, post-emergence, 336 h, read-out: percent postemergent control
Method: In representative operations, each compound to be utilized in a series of tests is dissolved in acetone to one-half of the final volume (twice the final concentration) to be used and the acetone solution in each case is admixed with an equal volume of water containing 0.1 percent by weight of surface active material. The compositions, generally in the nature of an emulsion, were employed to spray separate respective plant species which had been grown to a 2-4 leaf stage in soil of good nutrient content in a greenhouse. The various beds were positioned side by side and exposed to substantially identical conditions of temperature and light. Each bed was maintained so as to prevent any interaction with test compounds in different seed beds. Other plants were left untreated to serve as controls. After treatment, the plants were maintained for about two weeks under greenhouse conditions conducive for good plant growth and watered as necessary. Control refers to the reduction in growth compared to the observed results of the same untreated species.

wild oats [22] = assay: Preemergent control of plant species; type: in vivo; conditions: Avena fatua, pre-emergence, 336 h; 0.25 lb/acre; read-out: percent preemergent control
How it was run: as §2

sorghum [23] = assay: Preemergent control of plant species; type: in vivo, Sorghum vulgare; conditions: Sorghum, pre-emergence, 336 h; 0.25 lb/acre; read-out: percent preemergent control
How it was run: as §2

sugar beet [24] = assay: Postemergent control of plant species; type: in vivo, Beta saccharifera; conditions: Beta vulgaris, post-emergence, 336 h, read-out: percent postemergent control
How it was run: as §1

yellow foxtail [25] = assay: Postemergent control of plant species; type: in vivo, Setaria lutescens; conditions: Setaria, post-emergence, 336 h, read-out: percent postemergent control
How it was run: as §1

yellow foxtail [26] = assay: Preemergent control of plant species; type: in vivo, Setaria lutescens; conditions: Setaria, pre-emergence, 336 h; 0.25 lb/acre; read-out: percent preemergent control
How it was run: as §2

sorghum [27] = assay: Postemergent control of plant species; type: in vivo, Sorghum vulgare; conditions: Sorghum, post-emergence, 336 h, read-out: percent postemergent control
How it was run: as §1

rape [28] = assay: Postemergent control of plant species; type: in vivo, Brassica napus; conditions: Brassica napus, post-emergence, 336 h, read-out: percent postemergent control
How it was run: as §1

wheat [29] = assay: Preemergent control of plant species; type: in vivo, Triticum aestivum; conditions: Triticum aestivum, pre-emergence, 336 h; 0.25 lb/acre; read-out: percent preemergent control
How it was run: as §2

yellow nutsedge [30] = assay: Postemergent control of plant species; type: in vivo, Cyperus esculentus; conditions: Cyperus, post-emergence, 336 h, read-out: percent postemergent control
How it was run: as §1

rice [31] = assay: Preemergent control of plant species; type: in vivo, Oryza sativa; conditions: Oryza sativa, pre-emergence, 336 h; 0.25 lb/acre; read-out: percent preemergent control
How it was run: as §2

wild oats [32] = assay: Postemergent control of plant species; type: in vivo, Avena fatua; conditions: Avena fatua, post-emergence, 336 h, read-out: percent postemergent control
How it was run: as §1

Structure (SMILES)	pest or weed control at 500 ppm (crabgrass)	pest or weed control at 280.212 g/ha (jimsonweed [1])	plant injury at 500 ppm (wheat [5])	pest or weed control at 500 ppm (annual morning glory [8])	plant injury at 500 ppm (soybean [9])	pest or weed control at 500 ppm (pigweed)	pest or weed control at 500 ppm (jimsonweed [13])	plant injury at 500 ppm (corn [14])	pest or weed control at 500 ppm (johnson grass [16])	plant injury at 500 ppm (rice [17])	pest or weed control at 500 ppm (velvetleaf [18])	plant injury at 500 ppm (cotton [19])	pest or weed control at 500 ppm (barnyardgrass [21])	pest or weed control at 500 ppm (cocklebur)	plant injury at 500 ppm (sugar beet [24])	pest or weed control at 500 ppm (yellow foxtail [25])	plant injury at 500 ppm (sorghum [27])	plant injury at 500 ppm (rape [28])	pest or weed control at 500 ppm (yellow nutsedge [30])	pest or weed control at 500 ppm (wild oats [32])	also measured
Cc1ccn2nc(S(=O)(=O)N(c3c(F)cccc3F)S(=O)(=O)c3ccccc3)nc2n1 [Compound 298]	25%	100%	0%	50%	0%	100%	50%	0%	50%	40%	80%	35%	65%	50%	80%	75%	40%	85%	0%		plant injury at 280.212 g/ha (corn [2]): 40%; plant injury at 280.212 g/ha (cotton [3]): 100%; plant injury at 280.212 g/ha (soybean [4]): 0%; pest or weed control at 280.212 g/ha (barnyardgrass [6]): 100%; plant injury at 280.212 g/ha (rape [7]): 100%; pest or weed control at 280.212 g/ha (annual morning glory [10]): 70%; plant injury at 280.212 g/ha (sugar beet [11]): 100%; pest or weed control at 280.212 g/ha (velvetleaf [12]): 100%; pest or weed control at 280.212 g/ha (yellow nutsedge [15]): 100%; pest or weed control at 280.212 g/ha (johnson grass [20]): 95%; pest or weed control at 280.212 g/ha (wild oats [22]): 50%; plant injury at 280.212 g/ha (sorghum [23]): 95%; pest or weed control at 280.212 g/ha (yellow foxtail [26]): 100%; plant injury at 280.212 g/ha (wheat [29]): 50%; plant injury at 280.212 g/ha (rice [31]): 95%
Cc1nc2nc(S(=O)(=O)Nc3ccccc3[N+](=O)[O-])nn2c2c1CCC2 [Compound 105]	0%		0%	70%	95%	60%	60%	80%	0%	20%	0%	35%	20%	100%	90%		0%	40%	0%	0%	
COc1ccc(Cl)c(NS(=O)(=O)c2nc3nc(C)ccn3n2)c1Cl [Compound 170]	60%	0%	0%	70%	30%	100%	90%	25%	85%	35%	90%	50%	75%	25%	95%	80%	25%		98%	80%	plant injury at 280.212 g/ha (corn [2]): 20%; plant injury at 280.212 g/ha (cotton [3]): 70%; plant injury at 280.212 g/ha (soybean [4]): 0%; pest or weed control at 280.212 g/ha (barnyardgrass [6]): 40%; plant injury at 280.212 g/ha (rape [7]): 100%; pest or weed control at 280.212 g/ha (annual morning glory [10]): 30%; plant injury at 280.212 g/ha (sugar beet [11]): 90%; pest or weed control at 280.212 g/ha (velvetleaf [12]): 85%; pest or weed control at 280.212 g/ha (yellow nutsedge [15]): 0%; pest or weed control at 280.212 g/ha (johnson grass [20]): 90%; plant injury at 280.212 g/ha (sorghum [23]): 80%; pest or weed control at 280.212 g/ha (yellow foxtail [26]): 70%; plant injury at 280.212 g/ha (wheat [29]): 10%; plant injury at 280.212 g/ha (rice [31]): 30%
COC(=O)c1nn(C)c(C)c1NS(=O)(=O)c1nc2nc(C)cc(C)n2n1 [Compound 250]	0%		0%	25%	50%	40%	50%	0%	0%	0%	70%	0%	0%	50%	30%	0%	0%	70%	0%	0%	

Reference: patent US4740233A, “Substituted 1,2,4-triazolo[1,5-a]-pyrimidine-2-sulfonamides and compositions and methods of controlling undesired vegetation and suppressing the nitrification of ammonium nitrogen in soil” (The Dow Chemical Company, priority 1986, dated 1988)
